Source: patent US10071100B2, “Therapeutic nanoparticles comprising a therapeutic agent and methods of making and using the same” (PFIZER INC., priority 2014, dated 2018)

Tests used:
[1] = physchem; assay type: physicochemical
Excerpt: It is described in U.S. Pat. No. 8,039,469, the contents of which are incorporated by reference. […] As indicated above, it is a base. It is a protonatable nitrogen-containing therapeutic agent. As used herein, a “protonatable nitrogen-containing therapeutic agent” includes any pharmaceutically active agent that contains at least one nitrogen-containing functional group that is capable of being protonated. In other words, the therapeutic agent has a nitrogen atom thereon which has a lone pair of electrons that could potentially accept a proton. The pKa refers to the acid dissociation constant on a logarithmic scale of the corresponding protonated form of the therapeutic agent. In other words, if a proton (H+) were present at the nitrogen atoms where there is an arrow indicated, the therapeutic agent would have the pKa indicated below: […]

[2] = pharmacokinetics of nanoparticles in Wistar Han rats; assay type: in vivo; conditions: rat; male Wistar Han rats, intravenous 1 mg/kg bolus, plasma
Method: The protocol was as follows: Male Wistar Han rats (approximately six weeks in age; n=4/group) with indwelling jugular vein cannulae were dosed intravenously with a 1 mg/kg bolus of Formulation A, B, and C nanoparticles or Formulation A, B, and C nanoparticles diluted in 0.9% saline. At various times after dosing, serial blood collections were made from the jugular vein cannulae and plasma concentrations of therapeutic agent were quantitated by LC-MS/MS.

[3] = pKa (acid dissociation constant); assay type: physicochemical; conditions: protonated form of the therapeutic agent; read-out: first pKa
Excerpt: It is described in U.S. Pat. No. 8,039,469, the contents of which are incorporated by reference. […] As indicated above, it is a base. It is a protonatable nitrogen-containing therapeutic agent. As used herein, a “protonatable nitrogen-containing therapeutic agent” includes any pharmaceutically active agent that contains at least one nitrogen-containing functional group that is capable of being protonated. In other words, the therapeutic agent has a nitrogen atom thereon which has a lone pair of electrons that could potentially accept a proton. The pKa refers to the acid dissociation constant on a logarithmic scale of the corresponding protonated form of the therapeutic agent. In other words, if a proton (H+) were present at the nitrogen atoms where there is an arrow indicated, the therapeutic agent would have the pKa indicated below:
The pKa information for the most basic nitrogen (bottom) and a less basic but still protonatable nitrogen (upper) are shown above. ACD is a calculated number using standard techniques known in the art, such as described in Liao C Z, Nicklaus M C. Comparison of nine programs predicting pK(a) values of pharmaceutical substances. J. Chem. Inform. Model. 49(12):2801-2812, 2009. It has to be understood that the pKa of the therapeutic agent refers to the protonated form thereof. […]

CN(C)C1CCN(C(=O)c2ccc(NC(=O)Nc3ccc(-c4nc(N5CCOCC5)nc(N5CCOCC5)n4)cc3)cc2)CC1 [therapeutic agent, 1-(4-{[4-(dimethylamino)piperidin-1-yl]carbonyl}phenyl)-3-[4-(4,6-dimorpholin-4-yl-1,3,5-triazin-2-yl)phenyl]urea]
logD ([1]; pH 6.5): 0.212 | logD ([1]; pH 7.4): 1.08 | AUC [2]: 920 ng·h/mL | half-life [2]: 13.2 h | pKa [3]: ~6.7
